{"source": "ChEMBL document CHEMBL6109139", "about": "“Rational Design of the First Dual Agonist at Trace Amine-Associated Receptor 1 and 5-HT2C Receptors Based on Binding Pocket Similarity for the Treatment of Schizophrenia and Alzheimer's Disease-Related Psychosis” (J Med Chem, 2025)", "key": {"[1]": {"assay": "Toxicity in female Beagle dog assessed as change in food consumption at 0.75 to 2.5 mg/kg, IG administered once daily for 4 weeks and measured after 4 weeks", "assay_type": "organism-based, Canis lupus familiaris", "settings": "in vivo, po, 1344 h, dose 0.75-2.5 mg/kg, time 8 weeks"}, "HEK293": {"system": "HEK293", "assay": "Agonist activity at 5HT2CR […] mutant (unknown origin) expressed in HEK293 cells assessed as IP1 level by HTRF IP1 competitive binding assay", "assay_type": "cell-based", "settings": "Homo sapiens"}, "[2]": {"assay": "Toxicity in male Beagle dog assessed as change in body weight at 0.75 to 2.5 mg/kg, IG administered once daily for 4 weeks and measured after 4 weeks", "assay_type": "organism-based, Canis lupus familiaris", "settings": "in vivo, po, 1344 h, dose 0.75-2.5 mg/kg, time 8 weeks"}, "Cytochrome P450 2C19": {"molecular_target": "Cytochrome P450 2C19 (Homo sapiens, UniProt P33261)", "sequence (P33261 whole entry)": "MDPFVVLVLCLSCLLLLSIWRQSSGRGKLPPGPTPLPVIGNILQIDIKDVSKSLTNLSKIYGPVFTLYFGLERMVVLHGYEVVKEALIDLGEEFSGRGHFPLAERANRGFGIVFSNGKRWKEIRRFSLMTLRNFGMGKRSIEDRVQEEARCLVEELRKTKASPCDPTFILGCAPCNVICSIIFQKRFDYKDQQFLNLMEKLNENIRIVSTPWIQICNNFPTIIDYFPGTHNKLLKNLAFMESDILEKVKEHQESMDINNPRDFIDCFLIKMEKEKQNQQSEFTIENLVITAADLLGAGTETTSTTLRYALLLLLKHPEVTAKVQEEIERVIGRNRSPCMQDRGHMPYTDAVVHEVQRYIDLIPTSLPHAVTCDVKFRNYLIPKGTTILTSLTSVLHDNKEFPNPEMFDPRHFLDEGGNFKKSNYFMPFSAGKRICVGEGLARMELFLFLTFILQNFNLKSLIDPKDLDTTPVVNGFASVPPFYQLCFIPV", "assay": "Inhibition of CYP2C19 in human liver microsomes in presence of NADPH by LC-MS/MS analysis", "assay_type": "ADME, Microsome"}, "[3]": {"assay": "Toxicity in male Beagle dog assessed as change in clinical chemistry at 0.75 to 2.5 mg/kg, IG administered once daily for 4 weeks and measured after 4 weeks", "assay_type": "organism-based, Canis lupus familiaris", "settings": "in vivo, po, 1344 h, dose 0.75-2.5 mg/kg, time 8 weeks"}, "[4]": {"assay": "Toxicity in male Beagle dog assessed as change in organ weight at 0.75 to 2.5 mg/kg, IG administered once daily for 4 weeks and measured after 4 weeks", "assay_type": "organism-based, Canis lupus familiaris", "settings": "in vivo, po, 1344 h, dose 0.75-2.5 mg/kg, time 8 weeks"}, "KCNQ1": {"molecular_target": "KCNQ1 (Homo sapiens, UniProt P51787)", "sequence (P51787 whole entry)": "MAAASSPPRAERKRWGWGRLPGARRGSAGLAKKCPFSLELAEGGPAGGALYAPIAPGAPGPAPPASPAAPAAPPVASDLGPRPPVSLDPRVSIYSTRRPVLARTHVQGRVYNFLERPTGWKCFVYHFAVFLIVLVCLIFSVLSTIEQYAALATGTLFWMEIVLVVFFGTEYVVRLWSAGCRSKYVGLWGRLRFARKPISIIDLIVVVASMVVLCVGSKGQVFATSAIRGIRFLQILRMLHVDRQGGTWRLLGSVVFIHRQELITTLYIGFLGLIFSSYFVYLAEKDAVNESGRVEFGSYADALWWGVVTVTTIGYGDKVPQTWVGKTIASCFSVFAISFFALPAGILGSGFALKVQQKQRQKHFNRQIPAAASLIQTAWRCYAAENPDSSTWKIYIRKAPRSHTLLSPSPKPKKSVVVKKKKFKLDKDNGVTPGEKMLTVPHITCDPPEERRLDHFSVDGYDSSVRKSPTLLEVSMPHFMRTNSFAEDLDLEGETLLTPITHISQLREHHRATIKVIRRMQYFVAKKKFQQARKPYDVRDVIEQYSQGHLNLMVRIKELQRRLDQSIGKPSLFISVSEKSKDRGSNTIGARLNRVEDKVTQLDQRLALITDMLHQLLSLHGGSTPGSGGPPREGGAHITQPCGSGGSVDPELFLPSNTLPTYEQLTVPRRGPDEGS", "assay": "Binding affinity to human KCNQ1 receptor at 10 uM by radioligand binding assay relative to control", "settings": "read-out: Activity"}, "[5]": {"assay": "Toxicity in female Sprague-Dawley rat assessed as irritability at 7.5 mg/kg, po administered once daily for 4 weeks and measured after 4 weeks", "assay_type": "organism-based", "settings": "in vivo, 1344 h, time 8 weeks"}, "[6]": {"assay": "Ratio of drug concentration in male Sprague-Dawley rat brain to plasma at 5 mg/kg, IG measured after 1 hrs by LC-MS/MS analysis", "assay_type": "ADME, organism-based", "settings": "brain and plasma, po, read-out: BPR"}, "[7]": {"molecular_target": "Tyrosine-protein kinase Lck (Homo sapiens) (UniProt P06239)", "sequence (P06239 2-509 limits assumed)": "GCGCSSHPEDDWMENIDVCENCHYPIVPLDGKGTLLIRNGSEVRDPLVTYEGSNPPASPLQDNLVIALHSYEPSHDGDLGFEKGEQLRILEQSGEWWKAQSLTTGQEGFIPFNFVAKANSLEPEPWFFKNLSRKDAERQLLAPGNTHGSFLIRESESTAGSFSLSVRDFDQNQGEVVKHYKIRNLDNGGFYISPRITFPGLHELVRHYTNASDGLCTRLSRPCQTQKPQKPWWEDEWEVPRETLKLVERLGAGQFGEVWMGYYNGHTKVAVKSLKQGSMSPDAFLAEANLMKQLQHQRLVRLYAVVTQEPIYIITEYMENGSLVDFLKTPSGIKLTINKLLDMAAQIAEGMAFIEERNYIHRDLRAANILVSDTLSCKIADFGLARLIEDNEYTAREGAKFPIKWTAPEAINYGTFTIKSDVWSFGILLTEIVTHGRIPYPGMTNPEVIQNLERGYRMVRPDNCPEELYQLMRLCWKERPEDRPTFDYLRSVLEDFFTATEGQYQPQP", "assay": "Binding affinity to LCK receptor (unknown origin) at 10 uM by radioligand binding assay relative to control"}, "[8]": {"assay": "Toxicity in female Sprague-Dawley rat assessed as irritability at 7.5 mg/kg, po administered once daily for 4 weeks", "assay_type": "organism-based", "settings": "in vivo, 672 h"}, "[9]": {"assay": "Toxicity in female Beagle dog assessed as change in organ ratios at 0.75 to 2.5 mg/kg, IG administered once daily for 4 weeks and measured after 4 weeks", "assay_type": "organism-based, Canis lupus familiaris", "settings": "in vivo, po, 1344 h, dose 0.75-2.5 mg/kg, time 8 weeks"}, "[10]": {"assay": "Toxicity in Sprague-Dawley rat assessed as catalepsy 2.5 to 7.5 mg/kg, po administered once daily for 4 weeks", "assay_type": "organism-based", "settings": "in vivo, 672 h, dose 2.5-7.5 mg/kg"}, "[11]": {"molecular_target": "Cannabinoid receptor 2 (Homo sapiens) (UniProt P34972)", "sequence (P34972 whole entry)": "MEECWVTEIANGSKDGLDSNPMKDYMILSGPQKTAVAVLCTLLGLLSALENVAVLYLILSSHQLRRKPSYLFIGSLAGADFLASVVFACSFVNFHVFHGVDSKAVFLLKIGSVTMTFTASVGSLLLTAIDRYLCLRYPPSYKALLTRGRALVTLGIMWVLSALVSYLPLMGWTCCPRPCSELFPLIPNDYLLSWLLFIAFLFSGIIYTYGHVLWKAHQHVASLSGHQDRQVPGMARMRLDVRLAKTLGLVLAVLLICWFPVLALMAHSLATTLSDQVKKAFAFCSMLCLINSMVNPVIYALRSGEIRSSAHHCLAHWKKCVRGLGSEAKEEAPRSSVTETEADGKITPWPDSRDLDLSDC", "assay": "Binding affinity to CB2 (unknown origin) at 10 uM by radioligand binding assay relative to control"}, "Mus musculus [12]": {"system": "Mus musculus", "assay": "Antipsychotic activity in amyloid beta (1 to 42) induced hyperlocomotion in mouse model assessed as decrease in total distance traveled at 10 mg/kg by open field test", "assay_type": "functional, organism-based"}, "[13]": {"assay": "Toxicity in male Beagle dog assessed as change in urinalysis at 0.75 to 2.5 mg/kg, IG administered once daily for 4 weeks and measured after 4 weeks", "assay_type": "organism-based, Canis lupus familiaris", "settings": "in vivo, po, 1344 h, dose 0.75-2.5 mg/kg, time 8 weeks"}, "Mus musculus [14]": {"system": "Mus musculus", "assay": "Antipsychotic activity in amyloid beta(1 to 42) induced cognitive impairment in mouse model assessed as increase in discrimination ratio of novel objects at 1 mg/kg, IG measured after 24 hrs by novel object recognition test", "assay_type": "functional, organism-based"}, "[15]": {"assay": "Toxicity in male Sprague-Dawley rat assessed as change in hematology at 2.5 to 7.5 mg/kg, po administered once daily for 4 weeks and measured after 4 weeks", "assay_type": "organism-based", "settings": "in vivo, 1344 h, dose 2.5-7.5 mg/kg, time 8 weeks"}, "[16]": {"assay": "Drug concentration in male Sprague-Dawley rat brain at 5 mg/kg, IG measured after 0.25 hrs by LC-MS/MS analysis", "assay_type": "ADME, organism-based", "settings": "in vivo, po"}, "[17]": {"molecular_target": "5-hydroxytryptamine receptor 2C (Mus musculus) (UniProt P34968)", "sequence (P34968 whole entry)": "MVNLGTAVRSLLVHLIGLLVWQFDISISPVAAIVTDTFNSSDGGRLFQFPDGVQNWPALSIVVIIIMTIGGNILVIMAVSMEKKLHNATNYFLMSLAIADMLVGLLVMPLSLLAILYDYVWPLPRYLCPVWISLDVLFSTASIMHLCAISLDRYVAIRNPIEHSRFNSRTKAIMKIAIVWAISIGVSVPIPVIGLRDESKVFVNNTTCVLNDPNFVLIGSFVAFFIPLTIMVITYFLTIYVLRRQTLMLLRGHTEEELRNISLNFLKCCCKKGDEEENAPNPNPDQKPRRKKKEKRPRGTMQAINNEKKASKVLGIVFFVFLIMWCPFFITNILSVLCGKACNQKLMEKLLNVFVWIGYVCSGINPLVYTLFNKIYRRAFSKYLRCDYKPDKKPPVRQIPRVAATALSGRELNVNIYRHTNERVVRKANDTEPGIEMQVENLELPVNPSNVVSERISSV", "assay": "Agonist activity at mouse 5-HT2CR by measuring maximum efficacy relative to control", "assay_type": "functional", "settings": "filed as agonist"}, "[18]": {"assay": "Mutagenicity in Salmonella typhimurium TA1535 by Ames test", "assay_type": "toxicity", "settings": "salmonella enterica subsp. enterica serovar typhimurium"}, "[19]": {"assay": "Toxicity in male Beagle dog assessed as change in hematology at 0.75 to 2.5 mg/kg, IG administered once daily for 4 weeks and measured after 4 weeks", "assay_type": "organism-based, Canis lupus familiaris", "settings": "in vivo, po, 1344 h, dose 0.75-2.5 mg/kg, time 8 weeks"}, "[20]": {"assay": "Toxicity in Sprague-Dawley rat assessed as fasciculation 2.5 to 7.5 mg/kg, po administered once daily for 4 weeks", "assay_type": "organism-based", "settings": "in vivo, 672 h, dose 2.5-7.5 mg/kg"}, "[21]": {"assay": "Toxicity in male Beagle dog assessed as change in organ ratios at 0.75 to 2.5 mg/kg, IG administered once daily for 4 weeks and measured after 4 weeks", "assay_type": "organism-based, Canis lupus familiaris", "settings": "in vivo, po, 1344 h, dose 0.75-2.5 mg/kg, time 8 weeks"}, "[22]": {"molecular_target": "Histamine H2 receptor (Homo sapiens) (UniProt P25021)", "sequence (P25021 whole entry)": "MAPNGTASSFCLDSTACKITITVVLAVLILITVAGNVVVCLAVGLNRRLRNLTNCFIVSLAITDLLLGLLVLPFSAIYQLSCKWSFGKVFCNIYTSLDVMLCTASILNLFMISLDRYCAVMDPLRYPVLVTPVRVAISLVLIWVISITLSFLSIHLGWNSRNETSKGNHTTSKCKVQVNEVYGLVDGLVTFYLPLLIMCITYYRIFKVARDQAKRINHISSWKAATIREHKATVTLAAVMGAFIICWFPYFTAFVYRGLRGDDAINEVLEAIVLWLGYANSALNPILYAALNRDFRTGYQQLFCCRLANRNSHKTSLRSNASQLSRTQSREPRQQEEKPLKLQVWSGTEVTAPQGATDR", "assay": "Binding affinity to H2 receptor (unknown origin) at 10 uM by radioligand binding assay relative to control"}, "[23]": {"assay": "Toxicity in male Sprague-Dawley rat assessed as irritability at 7.5 mg/kg, po administered once daily for 4 weeks and measured after 4 weeks", "assay_type": "organism-based", "settings": "in vivo, 1344 h, time 8 weeks"}, "[24]": {"assay": "Toxicity in female Sprague-Dawley rat assessed as piloerection at 7.5 mg/kg, po administered once daily for 4 weeks and measured after 4 weeks", "assay_type": "organism-based", "settings": "in vivo, 1344 h, time 8 weeks"}, "[25]": {"assay": "Toxicity in female Sprague-Dawley rat assessed as irritability at 2.5 mg/kg, po administered once daily for 4 weeks", "assay_type": "organism-based", "settings": "in vivo, 672 h"}, "[26]": {"assay": "Toxicity in female Beagle dog assessed as change in clinical chemistry at 0.75 to 2.5 mg/kg, IG administered once daily for 4 weeks and measured after 4 weeks", "assay_type": "organism-based, Canis lupus familiaris", "settings": "in vivo, po, 1344 h, dose 0.75-2.5 mg/kg, time 8 weeks"}, "[27]": {"molecular_target": "Mu-type opioid receptor (Homo sapiens) (UniProt P35372)", "sequence (P35372 whole entry)": "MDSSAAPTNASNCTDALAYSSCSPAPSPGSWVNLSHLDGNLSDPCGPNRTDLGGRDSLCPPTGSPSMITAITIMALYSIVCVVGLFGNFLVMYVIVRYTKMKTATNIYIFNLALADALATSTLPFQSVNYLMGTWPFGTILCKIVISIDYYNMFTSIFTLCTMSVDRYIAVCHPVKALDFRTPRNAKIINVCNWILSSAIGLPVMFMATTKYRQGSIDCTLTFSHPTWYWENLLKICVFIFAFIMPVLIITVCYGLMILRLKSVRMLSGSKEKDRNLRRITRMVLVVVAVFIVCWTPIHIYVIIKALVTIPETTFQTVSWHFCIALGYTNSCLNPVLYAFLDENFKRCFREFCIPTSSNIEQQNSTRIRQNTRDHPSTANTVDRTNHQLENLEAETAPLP", "assay": "Binding affinity to op-mu receptor (unknown origin) at 10 uM by radioligand binding assay relative to control"}, "[28]": {"assay": "Mutagenicity in Salmonella typhimurium TA100 by Ames test", "assay_type": "toxicity", "settings": "salmonella enterica subsp. enterica serovar typhimurium"}, "[29]": {"assay": "Toxicity in female Beagle dog assessed as minimal decrease activity at 2.5 mg/kg, IG administered once daily for 4 weeks", "assay_type": "organism-based, Canis lupus familiaris", "settings": "in vivo, po, 672 h"}, "D(2) dopamine receptor": {"molecular_target": "D(2) dopamine receptor (Homo sapiens, UniProt P14416)", "sequence (P14416 whole entry)": "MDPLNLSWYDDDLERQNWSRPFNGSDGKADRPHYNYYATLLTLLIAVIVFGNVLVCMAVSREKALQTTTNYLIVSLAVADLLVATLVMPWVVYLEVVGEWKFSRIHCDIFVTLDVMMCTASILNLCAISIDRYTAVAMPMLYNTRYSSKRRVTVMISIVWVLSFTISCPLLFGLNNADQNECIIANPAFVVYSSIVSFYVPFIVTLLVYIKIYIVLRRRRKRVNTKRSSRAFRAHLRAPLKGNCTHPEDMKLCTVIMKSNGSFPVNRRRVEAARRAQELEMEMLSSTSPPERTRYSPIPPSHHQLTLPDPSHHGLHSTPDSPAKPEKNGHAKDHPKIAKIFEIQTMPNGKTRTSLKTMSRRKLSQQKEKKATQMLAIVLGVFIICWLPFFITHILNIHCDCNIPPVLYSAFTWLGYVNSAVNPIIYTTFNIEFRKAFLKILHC", "assay": "Antagonist activity at human D2S receptor expressed in Flp-In-CHO cells", "assay_type": "cell-based"}, "[30]": {"assay": "Toxicity in male Sprague-Dawley rat assessed as change in urinalysis at 2.5 to 7.5 mg/kg, po administered once daily for 4 weeks and measured after 4 weeks", "assay_type": "organism-based", "settings": "in vivo, 1344 h, dose 2.5-7.5 mg/kg, time 8 weeks"}, "[31]": {"molecular_target": "Trace amine-associated receptor 1 (Rattus norvegicus) (UniProt Q923Y9)", "sequence (Q923Y9 whole entry)": "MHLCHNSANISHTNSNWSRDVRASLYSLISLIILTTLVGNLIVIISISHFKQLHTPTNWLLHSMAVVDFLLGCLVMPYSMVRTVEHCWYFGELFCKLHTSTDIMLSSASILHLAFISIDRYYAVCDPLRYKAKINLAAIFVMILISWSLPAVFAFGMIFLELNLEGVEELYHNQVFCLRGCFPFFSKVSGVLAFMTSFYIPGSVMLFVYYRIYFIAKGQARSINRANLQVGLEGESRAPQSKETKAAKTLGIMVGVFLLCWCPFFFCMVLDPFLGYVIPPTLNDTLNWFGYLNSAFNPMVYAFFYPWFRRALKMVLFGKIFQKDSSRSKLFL", "assay": "Agonist activity at rat TAAR1 by measuring maximum efficacy relative to control", "assay_type": "functional", "settings": "filed as agonist"}, "[32]": {"assay": "Toxicity in male Sprague-Dawley rat assessed as minimal corneal neovascularization at 2.5 to 7.5 mg/kg, po administered once daily for 4 weeks and measured after 4 weeks", "assay_type": "organism-based", "settings": "in vivo, 1344 h, dose 2.5-7.5 mg/kg, time 8 weeks"}, "[33]": {"assay": "Toxicity in male Sprague-Dawley rat assessed as corneal epithelial degeneration at 7.5 mg/kg, po administered once daily for 4 weeks", "assay_type": "organism-based", "settings": "in vivo, 672 h"}, "[34]": {"assay": "Toxicity in male Sprague-Dawley rat assessed as change in organ weight at 2.5 to 7.5 mg/kg, po administered once daily for 4 weeks and measured after 4 weeks", "assay_type": "organism-based", "settings": "in vivo, 1344 h, dose 2.5-7.5 mg/kg, time 8 weeks"}, "[35]": {"assay": "Toxicity in female Beagle dog assessed as change in hematology at 0.75 to 2.5 mg/kg, IG administered once daily for 4 weeks and measured after 4 weeks", "assay_type": "organism-based, Canis lupus familiaris", "settings": "in vivo, po, 1344 h, dose 0.75-2.5 mg/kg, time 8 weeks"}}, "note": "Active and inactive are the calls of the source. No cut-off for these calls is given here."}
{"molecule": "c1cc2c(s1)[C@@H]1CNCCN1CC2", "values": [{"measurement": "Activity", "setting": "[1]", "value": "Non-toxic"}, {"measurement": "Activity", "setting": "HEK293", "value": "inactive"}, {"measurement": "Activity", "setting": "[2]", "value": "Non-toxic"}, {"measurement": "IC50", "setting": "Cytochrome P450 2C19", "value": "> 50", "unit": "µM"}, {"measurement": "Activity", "setting": "[3]", "value": "Non-toxic"}, {"measurement": "Activity", "setting": "[4]", "value": "Non-toxic"}, {"measurement": "activity at 10 µM", "setting": "KCNQ1", "value": 28.4, "unit": "%"}, {"measurement": "Activity", "setting": "[5]", "value": "Non-toxic"}, {"measurement": "Kp at 1 h", "setting": "[6]", "value": 6.02}, {"measurement": "Activity", "setting": "[7]", "value": 3.4, "unit": "%"}, {"measurement": "Activity", "setting": "[8]", "value": "Toxic"}, {"measurement": "Activity", "setting": "[9]", "value": "Non-toxic"}, {"measurement": "Activity", "setting": "[10]", "value": "Non-toxic"}, {"measurement": "Activity", "setting": "[11]", "value": 2.7, "unit": "%"}, {"measurement": "Activity", "setting": "Mus musculus [12]", "value": "Active"}, {"measurement": "Activity", "setting": "[13]", "value": "Non-toxic"}, {"measurement": "Activity", "setting": "Mus musculus [14]", "value": "Active"}, {"measurement": "Activity", "setting": "[15]", "value": "Non-toxic"}, {"measurement": "Ct", "setting": "[16]", "value": 39250, "unit": "nmol/kg"}, {"measurement": "Emax", "setting": "[17]", "value": 103, "unit": "%"}, {"measurement": "Activity", "setting": "[18]", "value": "Non-toxic"}, {"measurement": "Activity", "setting": "[19]", "value": "Non-toxic"}, {"measurement": "Activity", "setting": "[20]", "value": "Non-toxic"}, {"measurement": "Activity", "setting": "[21]", "value": "Non-toxic"}, {"measurement": "Activity", "setting": "[22]", "value": 1.39, "unit": "%"}, {"measurement": "Activity", "setting": "[23]", "value": "Non-toxic"}, {"measurement": "Activity", "setting": "[24]", "value": "Non-toxic"}, {"measurement": "Activity", "setting": "[25]", "value": "Toxic"}, {"measurement": "Activity", "setting": "[26]", "value": "Non-toxic"}, {"measurement": "Activity", "setting": "[27]", "value": 18.2, "unit": "%"}, {"measurement": "Activity", "setting": "[28]", "value": "Non-toxic"}, {"measurement": "Activity", "setting": "[29]", "value": "Toxic"}, {"measurement": "IC50", "setting": "D(2) dopamine receptor", "value": "> 100", "unit": "µM"}, {"measurement": "Activity", "setting": "[30]", "value": "Non-toxic"}, {"measurement": "Emax", "setting": "[31]", "value": 99.5, "unit": "%"}, {"measurement": "Activity", "setting": "[32]", "value": "Non-toxic"}, {"measurement": "Activity", "setting": "[33]", "value": "Toxic"}, {"measurement": "Activity", "setting": "[34]", "value": "Non-toxic"}, {"measurement": "Activity", "setting": "[35]", "value": "Non-toxic"}]}
